Data: patent US8835472B2, “Compounds, pharmaceutical compositions and uses thereof” (Boehringer Ingelheim International GmbH, priority 2010, dated 2014)

Each compound was assayed against human ACC2 (Homo sapiens (Human), UniProt O00763) (assay: ACC2 assay, spectrophotometric 384 well assay (NADH-linked, coupled lactate dehydrogenase/pyruvate kinase reaction)). Details: hACC2 construct lacking the 128 N-terminal amino acids; 25° C., 340 nm over 15 minutes.
Type: biochemical
Description: Spectrophotometric 384 Well Assay
Malonyl CoA formation by acetyl CoA carboxylases is stoichometrically linked to the consumption of ATP. ACC2 activity is measured in a NADH-linked kinetic method measuring ADP generated during the ACC reaction using a coupled lactate dehydrogenase/pyruvate kinase reaction.
For biological testing, a human ACC2 construct which lacks the 128 amino acids at the N-terminus for increased solubility (nt 385-6966 in Genbank entry AJ575592) is cloned. The protein is then expressed in insect cells using a baculoviral expression system. Protein purification is performed by anion exchange.
All compounds are dissolved in dimethyl sulfoxide (DMSO) to a concentration of 10 mM.
Assay reactions are then carried out in 384-well plates, with hACC2 in an appropriate dilution and at final assay concentrations (f.c.) of 100 mM Tris (pH 7.5), 10 mM trisodium citrate, 25 mM KHCO3, 10 mM MgCl2, 0.5 mg/mL BSA, 3.75 mM reduced L-glutathione, 15 U/mL lactate dehydrogenase, 0.5 mM phosphoenolpyruvate, 15 U/mL pyruvate kinase, compounds at different concentrations at final DMSO concentrations of 1%.
The enzymatic reaction is then started by addition of a mixture of NADH, acetyl Coenzyme A (both 200 μM f.c.) and ATP (500 uM f.c.). The decrease of the optical density (slope S) is then determined at 25° C. at a wavelength of 340 nm over 15 minutes in a spectrophotometric reader.
Each assay microtiter plate contains wells with vehicle instead of compound as controls for the non-inhibited enzyme (100% CTL; ‘HIGH’) and wells without acetyl-CoA as controls for non-specific NADH degradation (0% CTL; ‘LOW’).
The slope S is used for calculation of % CTL=(S(compound)−S(‘LOW’))/(S(‘HIGH’)−S(‘LOW’))*100. Compounds will give values between 100% CTL (no inhibition) and 0% CTL (complete inhibition).
For IC50 value determination, the sample slope in the presence of the test compound after subtraction of the low controls (S(compound)−S(‘LOW’)) are used. An IC50 value is derived from the compound slopes at different dosages after subtraction of the low controls (S(compound)−S(‘LOW’)) by non-linear regression curve fitting (equation y=(A+((B−A)/(1+((C/x)^D))))).

Sequence of human ACC2 (O00763 129-2458): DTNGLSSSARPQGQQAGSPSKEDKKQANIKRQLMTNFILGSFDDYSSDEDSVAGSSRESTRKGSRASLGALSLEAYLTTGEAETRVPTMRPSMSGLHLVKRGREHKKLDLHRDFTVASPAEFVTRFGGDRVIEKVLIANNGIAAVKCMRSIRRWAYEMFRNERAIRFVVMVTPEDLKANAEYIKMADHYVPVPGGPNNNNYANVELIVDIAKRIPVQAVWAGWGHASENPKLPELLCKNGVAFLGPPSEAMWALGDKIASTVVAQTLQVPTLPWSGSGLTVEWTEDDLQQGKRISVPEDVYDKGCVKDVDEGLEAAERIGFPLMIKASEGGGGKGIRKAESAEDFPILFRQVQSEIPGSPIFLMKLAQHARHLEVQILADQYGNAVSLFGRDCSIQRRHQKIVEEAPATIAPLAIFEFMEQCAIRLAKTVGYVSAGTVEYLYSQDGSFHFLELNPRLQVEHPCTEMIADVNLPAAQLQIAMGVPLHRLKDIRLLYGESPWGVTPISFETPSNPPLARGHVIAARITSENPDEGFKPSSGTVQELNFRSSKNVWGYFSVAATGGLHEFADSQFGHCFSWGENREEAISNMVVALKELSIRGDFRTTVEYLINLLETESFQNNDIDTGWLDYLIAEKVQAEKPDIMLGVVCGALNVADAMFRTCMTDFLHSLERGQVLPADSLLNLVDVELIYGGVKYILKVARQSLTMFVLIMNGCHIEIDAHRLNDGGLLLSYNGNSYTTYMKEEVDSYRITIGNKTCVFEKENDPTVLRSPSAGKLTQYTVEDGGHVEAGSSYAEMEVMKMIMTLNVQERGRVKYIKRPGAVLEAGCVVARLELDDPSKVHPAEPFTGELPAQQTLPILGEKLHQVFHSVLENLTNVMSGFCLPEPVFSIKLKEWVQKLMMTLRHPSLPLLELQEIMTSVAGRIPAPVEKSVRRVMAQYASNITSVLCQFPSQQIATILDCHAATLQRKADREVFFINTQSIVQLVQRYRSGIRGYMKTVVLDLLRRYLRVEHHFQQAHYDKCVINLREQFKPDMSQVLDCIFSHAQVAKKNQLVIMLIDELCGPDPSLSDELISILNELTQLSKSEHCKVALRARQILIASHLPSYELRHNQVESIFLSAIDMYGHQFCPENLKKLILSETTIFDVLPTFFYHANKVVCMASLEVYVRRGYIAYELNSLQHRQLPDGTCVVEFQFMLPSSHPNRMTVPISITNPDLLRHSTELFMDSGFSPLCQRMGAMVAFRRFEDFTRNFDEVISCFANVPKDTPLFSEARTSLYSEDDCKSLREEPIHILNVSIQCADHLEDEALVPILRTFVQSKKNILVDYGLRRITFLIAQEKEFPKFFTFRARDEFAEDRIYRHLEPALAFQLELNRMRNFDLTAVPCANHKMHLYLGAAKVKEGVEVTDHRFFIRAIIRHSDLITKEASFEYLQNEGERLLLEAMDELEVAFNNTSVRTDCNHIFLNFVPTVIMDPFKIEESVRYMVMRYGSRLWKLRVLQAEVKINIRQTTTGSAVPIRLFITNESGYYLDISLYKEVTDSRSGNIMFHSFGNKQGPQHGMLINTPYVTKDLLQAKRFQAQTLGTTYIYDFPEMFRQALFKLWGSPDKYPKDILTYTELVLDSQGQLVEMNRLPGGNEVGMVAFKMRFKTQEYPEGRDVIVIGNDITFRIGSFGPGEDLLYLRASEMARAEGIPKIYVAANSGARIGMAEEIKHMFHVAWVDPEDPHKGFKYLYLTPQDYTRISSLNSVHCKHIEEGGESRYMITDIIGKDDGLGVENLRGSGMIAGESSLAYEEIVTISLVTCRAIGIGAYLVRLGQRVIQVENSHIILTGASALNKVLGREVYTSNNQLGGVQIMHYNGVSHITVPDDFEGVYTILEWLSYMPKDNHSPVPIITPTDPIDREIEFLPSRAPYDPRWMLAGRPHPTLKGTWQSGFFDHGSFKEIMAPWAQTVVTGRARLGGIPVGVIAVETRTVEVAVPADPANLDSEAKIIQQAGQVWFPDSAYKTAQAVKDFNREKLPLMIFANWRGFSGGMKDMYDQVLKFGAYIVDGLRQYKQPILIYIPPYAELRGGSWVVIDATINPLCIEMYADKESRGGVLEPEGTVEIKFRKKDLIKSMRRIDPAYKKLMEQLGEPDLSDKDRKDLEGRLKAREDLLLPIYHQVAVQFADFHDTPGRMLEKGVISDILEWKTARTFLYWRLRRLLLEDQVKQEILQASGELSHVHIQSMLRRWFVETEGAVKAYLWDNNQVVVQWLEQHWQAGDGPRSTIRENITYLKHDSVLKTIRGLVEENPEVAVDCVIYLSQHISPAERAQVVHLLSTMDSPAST

IC50 | SMILES
1500 nM | CC(=O)NC(C)Cc1ccc(C#Cc2ccc(OC(F)(F)F)cc2)cc1 (stereo not drawn) [Example 14.50]
5100 nM | CCOc1ccc(C#Cc2ccc(CC(C)NC(=O)C3CCC(=O)NC3)cc2)cc1 (stereo not drawn) [Example 4.64]
300 nM | CCCc1ccc(C#Cc2ccc(CC(C)NC(C)=O)cc2)cc1 (stereo not drawn) [Example 2.20]
290 nM | CCCN(C)c1nccc(C#Cc2ccc(CC(C)NC(C)=O)cc2)n1 (stereo not drawn) [Example 11.46]
190 nM | CC(=O)NC(C)Cc1ccc(C#Cc2cnc(N3CCC4(CC4)C3)nc2)cc1 (stereo not drawn) [Example 13.72]
190 nM | CC(=O)NC(C)Cc1ccc(C#Cc2cnc(N(C)C3CCCC3)nc2)cc1 (stereo not drawn) [Example 13.16]
1100 nM | CCOc1ccc(C#Cc2ccc(CCNC(=O)CC)cc2)cc1 [Example 16.1, N-(4-((4-Ethoxyphenyl)ethynyl)phenethyl)propionamide]
120 nM | CC(=O)NC(C)Cc1ccc(C#Cc2ccc(OC3CCC3)cc2)cc1 (stereo not drawn) [Example 14.6]
130 nM | CCCCOc1cc(C#Cc2ccc(CC(C)NC(C)=O)cc2)ccn1 (stereo not drawn) [Example 2.96]
1300 nM | COc1ccc(C#Cc2ccc(CCC(C)NC(C)=O)cc2)cn1 (stereo not drawn) [Example 14.8]
1500 nM | CC(=O)NC(C)Cc1ccc(C#Cc2cnc(Oc3cccnc3)nc2)cc1 (stereo not drawn) [Example 12.51]
240 nM | CC(=O)NC(C)CCc1ccc(C#Cc2cnc(OC3CCC3)nc2)cc1 (stereo not drawn) [Example 14.54]
130 nM | CC(=O)NC(C)Cc1ccc(C#Cc2cnc(Oc3cccc(F)c3)nc2)cc1 (stereo not drawn) [Example 12.47]
120 nM | CC(=O)NC(C)Cc1ccc(C#Cc2ccc(OC3CC3)cc2)cc1 (stereo not drawn) [Example 2.100]
180 nM | CC(=O)NC(C)Cc1ccc(C#Cc2cnc(OCC3CC3(F)F)nc2)cc1 (stereo not drawn) [Example 12.45]
120 nM | CC(Cc1ccc(C#Cc2cnc(NC3CCC3)nc2)cc1)NC(=O)N(C)C (stereo not drawn) [Example 13.27]
140 nM | CCC(C)Oc1ccc(C#Cc2ccc(CC(C)NC(C)=O)cc2)cc1 (stereo not drawn) [Example 23.9]
5600 nM | CC(=O)NC(C)Cc1ccc(C#Cc2ccc(C(=O)N(C)Cc3nc(C)oc3C)cc2)cc1 (stereo not drawn) [Example 8.2]
980 nM | CC(=O)N[C@@H](C)c1ccc(C#Cc2cnc(Oc3ccccc3)nc2)cc1 [Example 12.68]
19200 nM | CCOc1ccc(C#Cc2ccc(CC(C)NC(=O)c3nc[nH]n3)cc2)cc1 (stereo not drawn) [Example 4.73]
790 nM | CC(=O)N[C@@H](C)c1ccc(C#Cc2cnc(OCc3ccoc3)nc2)cc1 [Example 12.61]
380 nM | CC(=O)NC(C)Cc1ccc(C#Cc2cnc(OC(C)C)nc2)cc1 (stereo not drawn) [Example 12.21]
9000 nM | CC(=O)NC(C)Cc1ccc(C#Cc2cnc(OCc3ccccc3F)nc2)cc1 (stereo not drawn) [Example 12.53]
1000 nM | CC(=O)NC(C)Cc1ccc(C#Cc2cccc(C(C)=O)c2)cc1 (stereo not drawn) [Example 1.23]
10900 nM | CC(=O)NC(C)Cc1ccc(C#Cc2cccc(C(=O)NCc3ccccn3)c2)cc1 (stereo not drawn) [Example 8.23]

IC50 | SMILES
240 nM | CC(=O)NC(C)Cc1ccc(C#Cc2ccc(OCC(F)F)cc2)cc1 (stereo not drawn) [Example 9.22]
510 nM | CC(C)COc1ccc(C#Cc2ccc(CC(C)NC(=O)C3CC3)cc2)cc1 (stereo not drawn) [Example 14.17]
10100 nM | CCOc1ccc(C#Cc2ccc(CC(C)NC(=O)C(=O)N(C)C)cc2)cc1 (stereo not drawn) [Example 4.61]
5300 nM | COc1ncccc1C#Cc1ccc(CC(C)NC(C)=O)cc1 (stereo not drawn) [Example 2.13]
160 nM | CCC(C)Nc1ncc(C#Cc2ccc(CC(C)NC(C)=O)cc2)cn1 (stereo not drawn) [15.1]
760 nM | COCCOc1ccc(C#Cc2ccc(CC(C)NC(C)=O)cc2)cn1 (stereo not drawn) [Example 2.24]
160 nM | CCCOc1ccc(C#Cc2ccc(CC(C)NC(C)=O)cc2)c(OC)c1 (stereo not drawn) [Example 2.32]
360 nM | CC(=O)NC(C)c1ccc(C#Cc2ccc(OC(C)C)cc2)cc1 (stereo not drawn) [Example 2.47]
170 nM | CCCOc1ccc(C#Cc2ccc(CCNC(C)=O)cc2)cc1 [Example 14.37]
600 nM | CC(Cc1ccc(C#Cc2cnc(NC3CCCC3)nc2)cc1)NC(=O)C1CC1 (stereo not drawn) [Example 13.47]
120 nM | CCOc1ccc(C#Cc2ccc(CC(C)NC(=O)CC)cc2)cc1 (stereo not drawn) [Example 4.7]
150 nM | CC(Cc1ccc(C#Cc2ccc(OC3CC3)cc2)cc1)NC(=O)C1CC1 (stereo not drawn) [Example 14.30]
1700 nM | CC(=O)NC(C)Cc1ccc(C#Cc2cccc(N(C)C)n2)cc1 (stereo not drawn) [Example 3.13]
290 nM | CCC(=O)NCC(C)c1ccc(C#Cc2cnc(OC3CCC3)nc2)cc1 (stereo not drawn) [Example 4.78]
13400 nM | CC(=O)NC(C)Cc1ccc(C#Cc2cccc(C(=O)N(C)Cc3ccncc3)c2)cc1 (stereo not drawn) [Example 8.39]
5100 nM | CCOc1ccc(C#Cc2ccc(CC(C)NC(=O)c3c(C)noc3N)cc2)cc1 (stereo not drawn) [Example 4.52]
1400 nM | CC(=O)NC(C)Cc1ccc(C#Cc2ccc(N3CCCCC3=O)cc2)cc1 (stereo not drawn) [Example 2.6]
1500 nM | CC(=O)NC(C)Cc1ccc(C#Cc2ccc(Oc3ccccc3)nn2)cc1 (stereo not drawn) [Example 2.77]
9400 nM | CC(=O)NC(C)Cc1ccc(C#Cc2ccc(OCCN3CCOCC3)cc2)cc1 (stereo not drawn) [Example 9.6]
14500 nM | CC(=O)NC(C)Cc1ccc(C#Cc2cccc(C(=O)N3CCC(c4ccncc4)C3)c2)cc1 (stereo not drawn) [Example 8.31]
180 nM | CC(=O)NCC(C)(C)c1ccc(C#Cc2cnc(OC3CCC3)nc2)cc1 [Example 2.34]
600 nM | CC(=O)NCCc1ccc(C#Cc2ccc(OCC(C)C)cc2)cc1 [Example 14.34]
930 nM | CCOc1ccc(C#Cc2ccc(CC(C)NC(=O)c3ccncc3)cc2)cc1 (stereo not drawn) [Example 4.22]
690 nM | COc1ccc(Cl)c(C#Cc2ccc(CC(C)NC(C)=O)cc2)c1 (stereo not drawn) [Example 3.8]
30000 nM | CC(=O)NC(C)Cc1ccc(C#Cc2cccc(C(=O)N3Cc4ccccc4C3)c2)cc1 (stereo not drawn) [Example 8.42]

IC50 | SMILES
80 nM | C=C1CCN(c2ncc(C#Cc3ccc(CC(C)NC(C)=O)cc3)cn2)CC1 (stereo not drawn) [Example 13.85]
16400 nM | COCCOc1ccc(C#Cc2ccc(CC(C)NC(C)=O)cc2)nn1 (stereo not drawn) [Example 2.89]
310 nM | CCOc1ccc(C#Cc2ccc(CC(C)NC(=O)OC)cc2)cc1 (stereo not drawn) [Example 29.2]
470 nM | CCOc1ccc(C#Cc2ccc(CC(C)NC(=O)C=C(C)C)cc2)cc1 (stereo not drawn) [Example 4.17]
26900 nM | CCOc1ccc(C#Cc2ccc(CCNC(C)=O)cn2)cc1 [Example 35.3]
590 nM | CC(Cc1ccc(C#Cc2cnc(Oc3ccccc3)nc2)cc1)NC(=O)C1CC1 (stereo not drawn) [Example 12.24]
70 nM | CC(Cc1ccc(C#Cc2cnc(OC3CCC3)nc2)cc1)NC(=O)N(C)C (stereo not drawn) [Example 12.29]
12900 nM | CCn1ccc(C#Cc2ccc(CC(C)NC(C)=O)cc2)cc1=O (stereo not drawn) [Example 2.87]
530 nM | CCOc1ccc(C#Cc2ccc(C(C)NC(=O)c3cnco3)cc2)cc1 (stereo not drawn) [Example 4.45]
6700 nM | CC(=O)NC(C)Cc1ccc(C#Cc2ccc(CN3CCCC3)cc2)cc1 (stereo not drawn) [Example 2.12]
21500 nM | CC(=O)NC(C)(C)c1ccc(C#Cc2cnc(OC3CCC3)nc2)cc1 [Example 23.15]
1500 nM | COc1ccc(C#Cc2ccc(C(C)NC(C)=O)cc2)cc1 (stereo not drawn) [Example 2.104]
9200 nM | CC(=O)NC(C)Cc1ccc(C#Cc2cccc(OCCN3CCCCC3)c2)cc1 (stereo not drawn) [Example 9.9]
170 nM | CCCOc1ccc(C#Cc2ccc(CC(C)NC(C)=O)cc2)c(C#N)c1 (stereo not drawn) [Example 2.92]
130 nM | CCCOc1cc(C#Cc2ccc(CC(C)NC(C)=O)cc2)ccn1 (stereo not drawn) [Example 2.14]
180 nM | CC(=O)NC(C)Cc1ccc(C#Cc2cnc(NCC3CCC3)nc2)cc1 (stereo not drawn) [Example 13.17]
2900 nM | C[C@H](NC(=O)C1CC1)c1ccc(C#Cc2cnc(NC3CC3)nc2)cc1 [Example 13.91]
810 nM | CCC(CC)Oc1cccc(C#Cc2ccc(CC(C)NC(C)=O)cc2)c1 (stereo not drawn) [Example 9.8]
1000 nM | CC(=O)NC(C)Cc1ccc(C#Cc2cnc(OC(CF)CF)nc2)cc1 (stereo not drawn) [Example 12.44]
1000 nM | CCC(C)CNc1ncc(C#Cc2ccc(CC(C)NC(C)=O)cc2)cn1 (stereo not drawn) [Example 13.84]
7700 nM | CC(=O)NC(C)Cc1ccc(C#Cc2cccc(C(=O)NCC(F)(F)F)c2)cc1 (stereo not drawn) [Example 8.18]
260 nM | CC(=O)NC(C)Cc1ccc(C#Cc2ccnc(OCc3ccccc3)c2)cc1 (stereo not drawn) [Example 3.9]
4100 nM | CCCn1ccc(C#Cc2ccc(CC(C)NC(C)=O)cc2)cc1=O (stereo not drawn) [Example 14.5]
25000 nM | CCCOc1ccc(C#Cc2ccc(C(C)(C)NC(C)=O)cc2)cc1 [Example 2.41]

SMILES | IC50
CC(=O)NC(C)Cc1ccc(C#Cc2cnc(OCc3cccc(F)c3)nc2)cc1 (stereo not drawn) [Example 12.54] | 230 nM
